Assay results: patent US10201158B2, “Plant disease control composition and method for controlling plant disease by application of same” (MITSUI CHEMICALS AGRO, INC., priority 2014, dated 2019)
Several values for one entry are separate records, joined by “and”; a condition that tells them apart may be missing. Identical values can stand only once. Like-named read-outs stand apart in the source and are kept apart here.

What was measured:
Puccinia recondita = experiment: Wheat brown rust preventive test; assay type: in vivo; conditions: Table 5, 8 days after inoculation
Experimental: Wheat plants (variety: Norin 61 gou) planted in plastic pots having a diameter of 5 cm were grown indoors to the second to fourth leaf stage. Wettable powder containing the compounds indicated in Table 5 were sprayed in the same manner as in Test Example 1, and after the chemical had dried, a conidia suspension of Puccinia recondita was inoculated onto the leaves. Following inoculation, the pots were placed in the humidified chamber of an artificial inoculation room (20° C. to 23° C.), removed on the following day and then transferred to a greenhouse. Control effects were examined 8 days after inoculation. During the examination, the number of lesions on five leaves of the wheat plants was determined in accordance with the following incidence degree indicators, and control values and theoretical values as determined according to Colby's formula were calculated in the same manner as in Test Example 1.

Blumeria graminis = experiment: Barley powdery mildew preventive test; assay type: in vivo; conditions: Table 4, 8 days after inoculation
Experimental: Barley plants (variety: Akashinriki) planted in plastic pots having a diameter of 5 cm were grown indoors to the second to fourth leaf stage. Wettable powder containing the compounds indicated in Table 4 were sprayed in the same manner as in Test Example 1, and after the chemical had dried, conidia of Blumeria graminis was inoculated onto the leaves. Following inoculation, the pots were transferred to a constant-temperature chamber (20° C. to 25° C.), and control effects were examined 8 days after inoculation.

Sphaerotheca fuliginea = experiment: Cucumber powdery mildew preventive test; assay type: in vivo; conditions: in vivo
Experimental: In a greenhouse, cucumber (variety: Sagamihanshiro) planted in a plastic pot having a diameter of 5 cm was grown to the 3rd to 5th-leaf stage. Spray was carried out in the same manner as in Test example 1, and 3 days after the spray, a conidia suspension prepared from Sphaerotheca fuliginea were inoculated on the leaf surface. After inoculation, the pots were placed in a thermostatic greenhouse (20 to 25° C.), and controlling effects were examined after 7 days from the inoculation. In the examination, a ratio of lesion area occupied per one leaf of cucumber was determined according to the same index as in Test example 1, and the control value and the theoretical value according to Colby's formula were similarly calculated.
Wettable powder prepared in compliance with Comparative Preparation Example 4 containing the compounds indicated in Table 7-9 were sprayed to the cucumber leaves, a conidiospore suspension prepared from Sphaerotheca fuliginea was inoculated onto the plants, and the controlling effects were examined in a manner similar to Test Example 6.

Phytophthora infestans = assay type: in vivo; conditions: 5 days after inoculation; for Control value: Table 6-1
[1] = tested on: Pseudoperonospora cubensis; experiment: Cucumber downy mildew preventive test; assay type: in vivo; conditions: Table 8; treatment concentration 10 ppm; 7 days after inoculation
Experimental: In a greenhouse, cucumber (variety: Sagamihanshiro) planted in a plastic pot having a diameter of 5 cm was grown to the 3rd to 5th-leaf stage. Spray was carried out in the same manner as in Test example 1, and after drying the chemical liquid, the pots were transferred into a greenhouse. After 3 days from the spray, a zoosporangium suspension of Pseudoperonospora cubensis was inoculated. After inoculation, the pots were placed in a high-humidity chamber (20 to 25° C.), transferred into a greenhouse on the next day, and controlling effects were examined after 7 days from the inoculation. A ratio of lesion area occupied per one leaf of cucumber was determined according to the same index as in Test example 1, and the control value and the theoretical value according to Colby's formula were similarly calculated.

Pyricularia oryzae = assay type: in vivo; conditions: for Control value: Table 3-1
Botrytis cinerea = conditions: in vivo
[2] = Table 6-2, treatment concentration 10 ppm
[3] = Table 6-3, treatment concentration 10 ppm
[4] = Table 3-2, treatment concentration 10 ppm
[5] = Table 3-3, treatment concentration 10 ppm
[6] = Table 3-4, treatment concentration 10 ppm
[7] = Table 3-5 (Comparative Example 2), treatment concentration 10 ppm
[8] = treatment concentration 0.4 ppm

SMILES | Control value (Puccinia recondita; treatment concentration 10 ppm) | Control value (Blumeria graminis; treatment concentration 10 ppm) | Control value (Sphaerotheca fuliginea) | Preventive value (Sphaerotheca fuliginea) | Control value (Phytophthora infestans; treatment concentration 10 ppm) | Preventive value (Phytophthora infestans; [2]) | Preventive value (Phytophthora infestans; [3]) | Preventive value [1] | Control value (Pyricularia oryzae; treatment concentration 10 ppm) | Preventive value (Pyricularia oryzae; [4]) | Preventive value (Pyricularia oryzae; [5]) | Preventive value (Pyricularia oryzae; [6]) | Preventive value (Pyricularia oryzae; [7]) | Control value (Botrytis cinerea) | Preventive value (Botrytis cinerea) | Control value (Puccinia recondita; treatment concentration 2 ppm) | Control value (Blumeria graminis; treatment concentration 2 ppm) | Control value (Pyricularia oryzae; treatment concentration 2 ppm) | further results
CC1(C)N=C(c2cnc3ccccc3c2)c2cccc(F)c2C1(C)C [Compound A, 3-(5-fluoro-3,3,4,4-tetramethyl-3,4-dihydroisoquinolin-1-yl)quinoline] | 11 | 6 | 33 and 17 | 40 | 8 | 33 | 47 | 27 | 67 | 73 | 73 | 67 | 67 | 64 | 77 and 70 and 73 and 67 and 40 | – | – | – | –
CC1(C)N=C(c2cnc3ccccc3c2)c2ccccc2C1(F)F [Compound B, 3-(4,4-difluoro-3,3-dimethyl-3,4-dihydroisoquinolin-1-yl)quinoline] | 6 | 6 | 33 and 17 | 33 and 40 | 13 | 33 | 40 | 23 | 67 | 73 | 73 | 67 | 67 | 57 | 77 and 70 and 73 and 80 and 67 and 40 | – | – | – | –
CC1(C)N=C(c2cnc3ccccc3c2)c2cccc(F)c2C1(F)F [Compound C, 3-(4,4,5-trifluoro-3,3-dimethyl-3,4-dihydroisoquinolin-1-yl)quinoline] | 8 | 6 | 33 and 17 | 33 and 40 | 4 | 40 | 37 | 17 | 67 | 73 | 73 | 67 | 67 | 57 | 73 and 60 and 70 and 77 and 67 and 40 | – | – | – | –
CC1(CCl)CCC(Cc2ccc(Cl)cc2)C1(O)Cn1cncn1 (stereo not drawn) [Compound of formula (VII)-1 (b-38)] | – | – | – | – | – | – | – | – | – | – | – | – | – | 7 | – | 69 | 81 | 50 | –
COc1cc(F)c(-c2c(Cl)nc(C)n2-c2cccc(F)c2)c(F)c1 [Compound of formula (XIV) (b-88)] | – | – | – | 40 | – | – | – | – | – | – | – | – | – | 14 | 50 | 42 | 56 | 50 | –
Cn1cc(C(=O)Nc2ccccc2-c2cc(F)c(F)c(F)c2)c(C(F)F)n1 [Fluxapyroxad (b-1), Fluxapyroxad] | – | – | – | – | – | – | – | – | – | – | – | – | – | – | 33 | 72 | 61 | 17 | –
Cc1cc(OC(C)C)ccc1C(=O)C(C)(C)NC(=O)c1sccc1C [Isofetamid (b-47), Isofetamid] | 3 | 67 | – | – | – | – | – | – | 17 | – | – | – | – | – | – | – | – | – | –
Cn1nnnc1/C(=N\OCc1cccc(NC(=O)OC(C)(C)C)n1)c1ccccc1 [Picarbutrazox (b-78), Picarbutrazox] | – | – | – | – | – | – | – | – | – | – | – | – | – | 0 | – | – | – | – | Control value (Puccinia recondita; [8]): 3; Control value (Phytophthora infestans; [8]): 75; Control value (Pyricularia oryzae; [8]): 17
O=C(Nc1ccccc1-c1ccc(F)c(F)c1)c1nccnc1C(F)(F)F [Pyraziflumid (b-49), Pyraziflumid] | – | – | – | – | – | – | – | – | – | – | – | – | – | – | 40 | 85 | – | 17 | –
